Measured values taken from article PMC6201908, “Affinity, potency, efficacy, and selectivity of neurokinin A analogs at human recombinant NK2 and NK1 receptors” (PLoS ONE, 2018).
Read-outs that look alike come from different tables or passages of the source. Non-standard residues stand in square brackets, D forms with d. Residues, ends and D or L forms follow the SMILES beside them. No end group written: not given here. NMeL = CN[C@@H](CC(C)C)C(=O)O

T1: human recombinant NK2 receptors (Homo sapiens, UniProt P21452)
T1 sequence (P21452 1-398): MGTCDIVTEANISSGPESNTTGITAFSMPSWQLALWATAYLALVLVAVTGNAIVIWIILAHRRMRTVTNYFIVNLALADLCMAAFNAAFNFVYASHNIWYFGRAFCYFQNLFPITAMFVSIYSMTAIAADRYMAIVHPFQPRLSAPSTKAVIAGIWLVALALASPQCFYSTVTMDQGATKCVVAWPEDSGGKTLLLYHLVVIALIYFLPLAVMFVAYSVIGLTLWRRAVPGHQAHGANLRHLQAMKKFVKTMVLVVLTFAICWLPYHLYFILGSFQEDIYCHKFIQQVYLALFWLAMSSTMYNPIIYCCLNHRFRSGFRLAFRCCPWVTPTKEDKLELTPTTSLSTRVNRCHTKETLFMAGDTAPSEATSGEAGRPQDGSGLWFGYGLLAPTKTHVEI

T2: NK2 receptor (Homo sapiens, UniProt P21452)
T2 chain: T1 sequence (P21452 1-398)

B1: NKA(4-10) (peptide)
chain: DSFVGLM-NH2

Experiments:
[1] = molecular target: T1, human recombinant NK2 receptors; assay: Displacement of [^125I]-NKA binding to CHO-hNK2 membranes
[2] = molecular target: T3, human recombinant NK1 receptors (Homo sapiens, UniProt P25103); assay: Displacement of [^3H]-Septide binding to CHO-hNK1 membranes (septide site); details: 5.0 nM [^3H]-Septide, 23°C, 1 h, mean ± SD; for [^3H]-Septide binding pKi: CHO-hNK1 membranes 20 μg/well; for [^3H]-Septide binding Slope: Hill slope of displacement curve
T3 sequence (P25103 whole entry): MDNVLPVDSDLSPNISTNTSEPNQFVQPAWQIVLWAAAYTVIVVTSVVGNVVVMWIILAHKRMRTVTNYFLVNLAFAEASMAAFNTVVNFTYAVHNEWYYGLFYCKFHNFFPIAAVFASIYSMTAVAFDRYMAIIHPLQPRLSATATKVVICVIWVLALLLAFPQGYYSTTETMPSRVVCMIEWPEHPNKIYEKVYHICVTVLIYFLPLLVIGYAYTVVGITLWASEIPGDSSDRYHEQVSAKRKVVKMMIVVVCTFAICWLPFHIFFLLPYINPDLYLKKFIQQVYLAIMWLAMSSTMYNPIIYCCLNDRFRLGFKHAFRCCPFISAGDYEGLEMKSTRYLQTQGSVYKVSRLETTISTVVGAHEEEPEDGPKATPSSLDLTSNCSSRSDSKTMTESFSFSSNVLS
Description: Protein expression was induced by addition of 5 mM sodium butyrate to the culture medium. […] The cell suspension was collected, placed on ice and centrifuged for 5 min at 4°C and 1200 rpm in a Beckman GS6R centrifuge. After removal of the supernatant the cell pellet was washed and collected by re-suspension in PBS and centrifugation. The final pellet was weighed and frozen at -80°C until use. Frozen pellets were thawed and homogenized in 10 volumes (w/v) of membrane preparation buffer (50 mM HEPES pH 7.4, 1 mM EDTA, 50 μg/mL bacitracin and protease inhibitors) using a Polytron Ultraturrax (twice for 15 s per cycle). The homogenate was centrifuged for 20 min at 4°C and 18500 rpm in a SL-50T Sorvall rotor and the pellet was re-suspended in membrane preparation buffer and re-homogenized as before. After centrifugation for 20 min at 4°C and 18500 rpm, the pellets were re-suspended in 5 volumes of membrane preparation buffer and divided into aliquots before freezing at -80°C. Protein concentration was determined using BioRad Protein Assay (Milan, Italy) with a BSA standard curve. Stock solutions of test compounds (10 mM) were prepared in DMSO and stored at -20°C until use. […] The goodness of fit between One-Site and Two-Site models was examined using Akaike's Information Corrected Criteria (AICC; [23]) in SAS v9.4 (SAS Institute, Cary NC) in order to select the best model for the data generated. […] Data from displacement experiments were plotted as the log [inhibitor concentration] (X axis) versus response expressed as TB in cpm (Y axis).

[3] = molecular target: T3, human recombinant NK1 receptors; assay: cell-based; details: CHO-hNK1 cells, mean ± SD; for Intracellular Ca^2+ % Max: % of maximal response observed with substance P
Description: (§1) Human recombinant NK2 and NK1 receptors were generated using stably transfected CHO cells (CHO-hNK2 and CHO-hNK1, respectively). Human NK2 or NK1 receptor expressing vectors from Genecopeia (Rockville, USA) were transfected in CHO cells using the standard FuGENE protocol and cells were selected using 450 μg/mL geneticin (G418). Clones expressing the receptors were selected by functional coupling to calcium using FLIPR and a single clone for each receptor subtype was selected for expansion and stable cell line generation. Cells were cultured in a humidified incubator with 5% CO2 in F12K medium containing 10% heat inactivated FBS and 450 μg/mL geneticin and passaged on reaching 80–90% confluence.
(§2) The agonist efficacy of the test compounds at recombinant human NK1 or NK2 receptors expressed in CHO cells was assessed by measuring the intracellular calcium response using the calcium-sensitive dye Fluo-4 AM (Eugene, OR, USA) and a Fluorometric Imaging Plate Reader (FLIPR, Molecular Devices, CA, USA). CHO-hNK1 and CHO-hNK2 cells were seeded into black walled clear-bottom 384-well plates at a density of 10,000 and 15,000 cells per well in 50 μL culture media, respectively, and grown overnight at 37°C in a humidified CO2-incubator. Cells were washed in washing buffer using an EMBLA 384 plate washer, leaving 20 μL of buffer per well after the final aspiration. Cells were then incubated at 37°C with the cytoplasmic Ca^2+ indicator Fluo-4 AM (final concentration 1 μM) in assay buffer (20 mM HEPES, 145 mM NaCl, 5 mM KCl, 5.5 mM glucose, 1 mM MgCl2 and 2 mM CaCl2, pH 7.4, 0.05% Pluronic F-127 and 0.1% BSA) containing 2.5 mM probenecid for 45–60 min (cell loading). Cells were then washed 3 times in washing buffer (20 mM HEPES, 145 mM NaCl, 5 mM KCl, 5.5 mM glucose, 1 mM MgCl2 and 2 mM CaCl2, pH 7.4 and 2.5 mM probenecid) using an EMBLA 384 plate washer, leaving 30 μL of buffer in each well after the last wash. Loaded cell plates were transferred to the FLIPR and calcium responses were monitored as described below. […] Concentration response curves of test compounds were generated in duplicate on at least two different occasions from the same stock solutions. Test solutions were prepared from 10 mM stock solutions in DMSO and 1 μL of each solution was stamped into V-bottom assay plates containing 49 μL assay buffer. The final concentration of DMSO was 0.5% in each well.

[4] = molecular target: T1, human recombinant NK2 receptors; assay: cell-based; details: for Intracellular Ca^2+ % Max: CHO-hNK2 cells, % of maximal response observed with NKA; for Intracellular Ca^2+ % Max / EC50: mean ± SD; for EC50: Intracellular Ca^2+ pEC50, CHO-hNK2 cells; for NK1/NK2 ratio of EC50s for intracellular calcium response: NK1 EC50 / NK2 EC50
Description: as §1, §2

[5] = molecular target: T3, human recombinant NK1 receptors; assay: cell-based; type: cell-based; details: CHO-hNK1 cells; % of maximal response observed with substance P; mean ± SD
Description: CHO-hNK2 and CHO-hNK1 cells were transiently transfected with a CRE-LUC reporter construct using Lipofectamine 2000. At 24 h post-transfection, cells were plated at a density of 20,000 cells/well in a 96-well culture plate. […] Luciferase expression was measured after 5 h of incubation at 37°C (in the presence of 5% CO2) by adding Firefly Luciferase reagent, followed by Renilla Luciferase reagent. Luminescence was measured by using an Envision Multilabel flash lamp reader after addition of the first and second reagents. Data were normalized by calculating the ratio of the Firefly luminescence from the CRE reporter to the Renilla luminescence from the control Renilla Luciferase vector.

NK2 receptor = molecular target: T2, NK2 receptor; assay: [125I]-NKA displacement

Molecule | [^125I]-NKA binding Slope ([1]; Hill slope of displacement curve, 0.1 nM [^125I]-NKA, 23°C, 3 h, mean ± SD) | NK1/NK2 ratio of Ki values ([1]; NK1 [^3H]-Septide Ki / NK2 [^125I]-NKA Ki) | Ki ([1]; [^125I]-NKA binding pKi, 0.1 nM [^125I]-NKA, CHO-hNK2 membranes 6 μg/well, 23°C, 3 h, mean ± SD) [nM] | [^3H]-Septide binding pKi [2] | [^3H]-Septide binding Slope [2] | Intracellular Ca^2+ % Max [3] [%] | Intracellular Ca^2+ pEC50 [3] | Intracellular Ca^2+ % Max [4] [%] | EC50 [4] [nM] | NK1/NK2 ratio of EC50s for intracellular calcium response [4] | NK1/NK2 ratio of Ki values [1] | [^125I]-NKA binding Slope [1] | [^125I]-NKA binding pKi [1] | cAMP stimulation % Max [5] [%] | Ki (NK2 receptor) [nM]
CSCC[C@H](NC(=O)[C@H](CC(C)C)N(C)C(=O)CNC(=O)[C@@H](NC(=O)[C@H](Cc1ccccc1)NC(=O)[C@H](CCCNC(=N)N)NC(=O)[C@@H](N)CC(=O)O)C(C)C)C(N)=O [[Arg^5,MeLeu^9]-NKA(4-10), Asp-Arg-Phe-Val-Gly-(NMe-Leu)-Met-NH2] (H-DRFVG[NMeL]M-NH2) | -0.90 ± 0.07 | 174 | 0.126 | 7.68 ± 0.16 | -0.75 ± 0.03 | 99.9 ± 13.3 | 9.52 ± 0.29 | 111.5 ± 3.7 | 0.162 | 2 |  |  |  |  | 
CSCC[C@H](NC(=O)[C@H](CC(C)C)N(C)C(=O)CNC(=O)[C@@H](NC(=O)[C@H](Cc1ccccc1)NC(=O)[C@H](CCCCN)NC(=O)[C@@H](N)CC(=O)O)C(C)C)C(N)=O [[Lys^5,MeLeu^9]-NKA(4–10), Asp-Lys-Phe-Val-Gly-(NMe-Leu)-Met-NH2] |  |  |  | 7.30 ± 0.16 | -0.89 ± 0.01 | 106.7 ± 5.7 | 9.02 ± 0.39 | 88.2 ± 11.4 | 0.145 | 7 | 251 | -0.84 ± 0.06 | 9.70 ± 0.16 |  | 
CSCC[C@H](NC(=O)[C@H](CC(C)C)NC(=O)CNC(=O)[C@@H](NC(=O)[C@H](Cc1ccccc1)NC(=O)[C@H](CO)NC(=O)[C@H](CC(=O)O)NC(=O)[C@@H](NC(=O)[C@H](CCCCN)NC(=O)[C@@H](N)Cc1c[nH]cn1)[C@@H](C)O)C(C)C)C(N)=O [NKA, reference compound] |  |  |  |  |  |  |  |  |  |  |  |  |  | 100.5 ± 13.6 | 
B1 |  |  |  |  |  |  |  |  |  |  |  |  |  |  | 2.3
